From patent US4264577A, “Contraceptive methods and compositions” (Eli Lilly and Company, priority 1980, dated 1981)

How the values were obtained:
[1] = Drug release rate in vitro from dimethylpolysiloxane rubber, Method A (calcium-free Ringer's, assayed by acrosin inhibition); type: physicochemical
Description: An appropriate sample of a dimethylpolysiloxane rubber compound in which is incorporated the test compound is placed in a suitable amount of calcium-free Ringers solution, and the sample and solution are incubated together at 37° C. for a period of time (e.g. 24 hours). The solution is removed and assayed for acrosin inhibition (expressed as units per milligram) using the technique described in Example 1. The equivalent amount of test compound in the removed solution is calculated from standard inhibition curves in which acrosin inhibition is plotted against concentration of the test compound. The calculated result are expressed as micrograms of test compound released per day.
The above test may be repeated for an extended period of time, for example, for 1 day to 360 days, or more, by adding fresh calcium-free Ringer's solution after each removal of the solution for assay.
Samples of a dimethylpolysiloxane rubber composition containing 10% W/W of sodium n-tetradecyl sulfate (prepared by Example 3, Method A) were tested as above described for 14 days. The sample weight was 14 mg. and the amount of added solution was 1 ml. After the 14th day, the release rate from the samples averaged 1-3 micrograms/day.
In another experiment, a dimethylpolysiloxane rubber composition weighing 400 mg. and containing 10% W/W of sodium tetradecyl sulfate (prepared by Example 3, Method A) was studied for a 90-day period.

[2] = Drug release rate in vivo, intrauterine medicated rubber rods; set-up: species or system rabbit; conditions: uterine horn
Description: (a) Dimethylpolysiloxane rubber rods (3 mm. diameter shaved to 2 mm.) weighing 40 mg. each and containing 5, 10, or 20% (W/W) of sodium n-tetradecyl sulfate (prepared by Example 3, Method B, lots 218-1, 225-1, and 218-2, respectively) are inserted into the right uterine horn of virgin Dutch -belted female rabbits, as follows:
After 60 days the animals in Group 1 are sacrificed and the rubber rods are removed, washed, and extracted continuously with methanol for 24 hours to remove the remaining sodium n-tetradecyl sulfate. The methanol extract is evaporated. The residue is dissolved in 10% methanol-water and assayed for sodium n-tetradecyl sulfate by the methylene blue method. The amount of active compound remaining in the rod is subtracted from the amount originally present in the rod, and the difference is assumed to be the amount released during the time period. After 120 days or […] the animals in Group 2 and Group 3, respectively, are sacrificed, and the rods were removed and treated as above described. The release of sodium n-tetradecyl sodium sulfate into the uterine fluids, as determined by the afore-described test procedure, after 60, 120, and 180 days is shown in Table 8, below: […]

rabbits = assay: Efficacy in vivo, rods sutured into both uterine horns, bred weekly; set-up: species or system rabbit; conditions: five rabbits, rods 20% (W/W) in both uterine horns, bred weekly for 225 days
Source text: (b) Five rabbits having rods containing 20% (W/W) sodium tetradecyl
sulfate (as described above) sutured into both uterine horns were bred

[3] = system: Dutch belted virgin rabbits; assay: Antifertility effect by intrauterine administration (medicated rubber rod in uterine horn); type: in vivo, rabbit; conditions: 40-mg rod, 10% W/W, in right uterine horn; 8 uterine horns; 14 days after breeding
Description: Dutch belted virgin rabbits, each weighing 3-4 pounds, are randomly selected and anesthetized with sodium pentobarbital ([…].) administered by IV drip. The uterus of each animal is exposed and a 40-mg. sample in the shape of a rod (3 mm. in diameter) of dimethylpolysiloxane rubber (as prepared in Example 3, Method A) containing 10% W/W of sodium tetradecyl sulfate is sutured into the right uterine horn at a random location in between the cervix and the uterotubal junction. The left horn is left untreated to serve as control. The rubber rod is placed into the uterine horn by passing a curved needle through it and through the uterine wall pulling the rod into the uterine lumen. The entry is closed by suturing. Animals (blank) are similarly treated using unmedicated dimethylpolysiloxane rubber to serve as a second group of controls. The animals are given 300,000 units of Duracillin®) per day (in four doses) and are allowed to recover for 14 days. Each animal is bred to a male of proven fertility and is immediately given a dose (IV) of appropoximately 100 units of human chorionic gonadotropin (HCG) to facilitate ovulation. Fourteen days after breeding, the animal are sacrificed by cervical dislocation and the uterine horns are examined for implanted embryos. The number of embryos per uterine horn are recorded. […]

[4] = system: female Dutch belted rabbits; assay: Efficacy of a vaginal suppository in female rabbits; type: in vivo, rabbit; conditions: 100 mg. PEG suppository with 1 mg. compound, 15 minutes before breeding; 6 animals; after 12 days
Description: Suppositories weighing 100 mg. are made to contain 1 mg. of sodium n-tetradecyl sulfate in a vehicle consisting of 35% polyethylene glycol 400, 35% polyethylene glycol 1540, and 30% polyethylene glycol 4000. A suppository is placed in the vagina of each of six female Dutch belted rabbits. After 15 minutes, each rabbit is bred to a buck of proven fertility and is injected with 100 I.U. of human chorionic gonadotropin. Each of six control animals are similarly treated using identical 100 mg. suppositories made from the same vehicle without the active compound. The animals are sacrificed after 12 days and are examined for embryos.

SMILES: CCCCCCCCCCCCCCOS(=O)(=O)[O-].[Na+] [n-tetradecyl, sodium n-tetradecyl sulfate]
- release rate from the samples (average) ([1]; 14 mg sample, 10% W/W, 1 ml solution, after the 14th day): 1-3 micrograms/day
- mean release rate ([1]; 400 mg composition, 10% W/W, 90-day period): 14 µg/day
- Amount of sodium n-tetradecyl sulfate released ([1]; Day 0.08 (2 hr.), 400 mg composition, 10% W/W): 77 µg/day
- Amount of sodium n-tetradecyl sulfate released ([1]; Day 0.16 (2 hr.), 400 mg composition, 10% W/W): 75 µg/day
- Amount of sodium n-tetradecyl sulfate released ([1]; Day 0.32 (8 hr.), 400 mg composition, 10% W/W): 72 µg/day
- Amount of sodium n-tetradecyl sulfate released ([1]; Day 1, 400 mg composition, 10% W/W): 69 µg/day
- Amount of sodium n-tetradecyl sulfate released ([1]; Day 2, 400 mg composition, 10% W/W): 50 µg/day
- Amount of sodium n-tetradecyl sulfate released ([1]; Day 5, 400 mg composition, 10% W/W): 15 µg/day
- Amount of sodium n-tetradecyl sulfate released ([1]; Day 7, 400 mg composition, 10% W/W): 37.5 µg/day
- Amount of sodium n-tetradecyl sulfate released ([1]; Day 9, 400 mg composition, 10% W/W): 50.0 µg/day
- Amount of sodium n-tetradecyl sulfate released ([1]; Day 12, 400 mg composition, 10% W/W): 13 µg/day
- Amount of sodium n-tetradecyl sulfate released ([1]; Day 13, 400 mg composition, 10% W/W): 0 µg/day
- Amount of sodium n-tetradecyl sulfate released ([1]; Day 15, 400 mg composition, 10% W/W): 25 µg/day
- Amount of sodium n-tetradecyl sulfate released ([1]; Day 18, 400 mg composition, 10% W/W): 28 µg/day
- Amount of sodium n-tetradecyl sulfate released ([1]; Day 27, 400 mg composition, 10% W/W): 10 µg/day
- Amount of sodium n-tetradecyl sulfate released ([1]; Day 42.5, 400 mg composition, 10% W/W): 7.6 µg/day
- Amount of sodium n-tetradecyl sulfate released ([1]; Day 50.5, 400 mg composition, 10% W/W): 10.5 µg/day
- Amount of sodium n-tetradecyl sulfate released ([1]; Day 57.5, 400 mg composition, 10% W/W): 12.0 µg/day
- Amount of sodium n-tetradecyl sulfate released ([1]; Day 64.5, 400 mg composition, 10% W/W): 8.6 µg/day
- Amount of sodium n-tetradecyl sulfate released ([1]; Day 72.5, 400 mg composition, 10% W/W): 8.3 µg/day
- Amount of sodium n-tetradecyl sulfate released ([1]; Day 76, 400 mg composition, 10% W/W): 5.6 µg/day
- Amount of sodium n-tetradecyl sulfate released ([1]; Day 83, 400 mg composition, 10% W/W): 5.1 µg/day
- Amount of sodium n-tetradecyl sulfate released ([1]; Day 90, 400 mg composition, 10% W/W): 5.0 µg/day
- Release rate from dimethylpolysiloxane, in vitro (Calc. on basis of acrosin inhibition) ([1]; rod used in Table 6): 1 to 3 mg/day
- Amount of sodium n-tetradecyl sulfate released (μg. per day) ([2]; 5% compound in rod, 60 days): 2.25 μg. per day
- Amount of sodium n-tetradecyl sulfate released (μg. per day) ([2]; 5% compound in rod, 120 days): 1.80 μg. per day
- Amount of sodium n-tetradecyl sulfate released (μg. per day) ([2]; 5% compound in rod, 180 days): 3.60 μg. per day
- Amount of sodium n-tetradecyl sulfate released (μg. per day) ([2]; 10% compound in rod, 60 days): 22.1 μg. per day
- Amount of sodium n-tetradecyl sulfate released (μg. per day) ([2]; 10% compound in rod, 120 days): 13.7 μg. per day
- Amount of sodium n-tetradecyl sulfate released (μg. per day) ([2]; 20% compound in rod, 60 days): 62.4 μg. per day
- Amount of sodium n-tetradecyl sulfate released (μg. per day) ([2]; 20% compound in rod, 120 days): 33.5 μg. per day
- pregnancies (rabbits): without any pregnancies noted
- Embryos Horn (x ± S.D.) [3]: 0
- Total No. of embryos [3]: 0
- Embryos Per Animal (x + std. dev.) [4]: 0.5 ± 1.2
- Total No. of embryos [4]: 3
